We go through 24 compounds from patent publication US9187429B2, “Phenyl-tetrahydroisoquinoline derivatives” (Hoffmann-La Roche Inc., priority 2012, dated 2015).

Assay [1] deals with human CYP11B1 (Homo sapiens (Human), UniProt P15538). As to the kind of experiment: G-402 cellular enzyme assay, human CYP11B1 (cortisol release). In kind it is cell-based. The note with it: G-402 cells expressing human CYP11B1, 1 μM Deoxycortisol. The source says:
(§1) The expression plasmids contains the ORF for either human/cyno CYP11B1 or CYP11B2 under the control of a suitable promoter (CMV-promoter) and a suitable resistance marker (neomycin). Using standard techniques the expression plasmid is transfected into G-402 cells and these cells are then selected for expressing the given resistance markers. Individual cell-clones are then selected and assessed for displaying the desired enzymatic activity using 11-Deoxycorticosterone (Cyp 11B2) or 11-Deoxycortisol (Cyp 11B1) as a substrate.
(§2) G-402 cells expressing CYP11 constructs were established as described above and maintained in McCoy's 5a Medium Modified, ATCC Catalog No. 30-2007 containing 10% FCS and 400 μg/ml G418 (Geneticin) at 37° C. under an atmosphere of 5% CO2/95% air. […] For assaying enzymatic activity, cells were plated onto 96 well plates and incubated for 16 h. An aliquot of the supernatant is then transferred and analyzed for the concentration of the expected product (Aldosterone for CYP11B2; Cortisol for CYP11B1). The concentrations of these steroids can be determined using HTRF assays from CisBio analyzing either Aldosterone or Cortisol.
(§3) Inhibition of the release of produced steroids can be used as a measure of the respective enzyme inhibition by test compounds added during the cellular enzyme assay. The dose dependent inhibition of enzymatic activity by a compound is calculated by means of plotting added inhibitor concentrations (x-axes) vs. measured steroid/product level (y-axes). The inhibition is then calculated by fitting the following 4-parameter sigmoidal function (Morgan-Mercer-Flodin (MMF) model) to the raw data points using the least squares method:
(§4) [formula] wherein, A is the maximum y value, B is the EC50 factor determined using XLFit, C is the minimum y value and D is the slope value.
(§5) EC50 values for compounds claimed herein were tested with the G402-based assay system described. Cyp 11B2 enzyme activity was tested in presence of 1 μM Deoxycorticosterone and variable amounts of inhibitors; Cyp 11B1 enzyme activity was tested in presence of 1 μM Deoxycortisol and variable amounts of inhibitors.

Assay [2] deals with CYP11B2 (Homo sapiens (Human), UniProt P19099). Nature of the assay: G-402 cellular enzyme assay, human CYP11B2 (aldosterone release). To be noted: G-402 cells expressing human CYP11B2, 1 μM Deoxycorticosterone. The format is cell-based.
Source text: as §1, §2, §3, §4, §5

Sequence of CYP11B2 (P19099 25-503): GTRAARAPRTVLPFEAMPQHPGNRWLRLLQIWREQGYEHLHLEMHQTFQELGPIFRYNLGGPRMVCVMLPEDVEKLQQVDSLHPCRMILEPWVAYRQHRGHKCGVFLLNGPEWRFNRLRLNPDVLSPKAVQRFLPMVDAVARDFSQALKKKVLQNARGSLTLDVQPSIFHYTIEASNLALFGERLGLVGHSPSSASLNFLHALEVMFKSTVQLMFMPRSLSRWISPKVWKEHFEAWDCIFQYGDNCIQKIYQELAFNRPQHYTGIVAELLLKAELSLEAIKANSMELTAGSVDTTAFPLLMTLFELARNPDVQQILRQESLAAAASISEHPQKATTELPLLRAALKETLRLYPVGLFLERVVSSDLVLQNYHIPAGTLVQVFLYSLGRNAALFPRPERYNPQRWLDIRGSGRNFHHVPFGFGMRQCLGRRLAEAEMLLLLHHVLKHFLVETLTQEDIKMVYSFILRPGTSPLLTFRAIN
Sequence of human CYP11B1 (P15538 25-503): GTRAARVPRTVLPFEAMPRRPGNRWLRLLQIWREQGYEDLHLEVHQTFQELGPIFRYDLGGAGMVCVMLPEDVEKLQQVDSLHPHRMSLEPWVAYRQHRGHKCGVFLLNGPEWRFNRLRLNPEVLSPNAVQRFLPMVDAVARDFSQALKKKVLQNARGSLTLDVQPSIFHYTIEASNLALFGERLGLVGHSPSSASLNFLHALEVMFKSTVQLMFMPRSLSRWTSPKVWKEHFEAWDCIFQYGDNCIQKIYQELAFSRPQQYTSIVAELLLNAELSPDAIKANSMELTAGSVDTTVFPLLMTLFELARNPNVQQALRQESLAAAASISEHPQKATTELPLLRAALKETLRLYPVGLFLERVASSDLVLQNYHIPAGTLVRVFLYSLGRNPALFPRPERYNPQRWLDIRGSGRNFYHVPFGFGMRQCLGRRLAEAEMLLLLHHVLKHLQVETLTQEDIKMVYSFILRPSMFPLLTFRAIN

Take `NC(=O)COC1CCc2c(-c3ccc(C(F)(F)F)cc3)cncc21` (racemic) [Example 102, (rac)-2-(4-(4-(Trifluoromethyl)phenyl)-6,7-dihydro-5H-cyclopenta[c]pyridin-7-yloxy)acetamide]: the EC50 in assay [1] amounted to 40.8 nM; in assay [2], 1.1 nM.

As for `CC1(COC2CCc3c(-c4ccc(C(F)(F)F)cc4)cncc32)COC1` (racemic) [Example 103, (rac)-7-((3-Methyloxetan-3-yl)methoxy)-4-(4-(trifluoromethyl)phenyl)-6,7-dihydro-5H-cyclopenta[c]pyridine], the EC50 in assay [1] came to 2.3 nM; in assay [2], 0.2 nM.

On to `OC1CCCc2c(-c3ccc(C(F)(F)F)cc3)cncc21` (racemic) [Example 104, (rac)-4-(4-(Trifluoromethyl)phenyl)-5,6,7,8-tetrahydroisoquinolin-8-ol], for which the values for the concentration for a half-maximal effect (EC50) in assay [1] and in assay [2] were 710 nM and 14.6 nM, respectively.

With `CCC(=O)N[C@@H]1c2cncc(-c3ccc(C(F)(F)F)cc3)c2CC[C@H]1C` (single isomer, unassigned) [Example 67, N-[(7R,8S or 7S,8R)-7-Methyl-4-(4-trifluoromethyl-phenyl)-5,6,7,8-tetrahydro-isoquinolin-8-yl]-propionamide], the EC50 in assay [1] is 8470 nM; in assay [2], 764 nM.

For `CCC(=O)N[C@@H]1c2cncc(-c3ccc(C(F)(F)F)cc3)c2CC[C@@H]1C` (single isomer, unassigned) [Example 68, N-[(7S,8S or 7R,8R)-7-Methyl-4-(4-trifluoromethyl-phenyl)-5,6,7,8-tetrahydro-isoquinolin-8-yl]-propionamide], the EC50 is 10700 nM in assay [1] and 658 nM in assay [2].

On to `CCC(=O)N[C@H]1c2cncc(-c3ccc(C(F)(F)F)cc3)c2CC[C@@H]1C` (single isomer, unassigned) [Example 69, N-[(7S,8R or 7R,8S)-7-Methyl-4-(4-trifluoromethyl-phenyl)-5,6,7,8-tetrahydro-isoquinolin-8-yl]-propionamide], for which the EC50 in assay [1] is 742 nM; in assay [2], 11 nM.

Take `CCC(=O)N[C@H]1c2cncc(-c3ccc(C(F)(F)F)cc3)c2CC[C@H]1C` (single isomer, unassigned) [Example 70, N-[(7R,8R or 7S,8S)-7-Methyl-4-(4-trifluoromethyl-phenyl)-5,6,7,8-tetrahydro-isoquinolin-8-yl]-propionamide]: the figures for the EC50 in assay [1] and in assay [2] were 3030 nM and 42 nM, respectively.

On to `Cc1ccc(C2(O)CCCc3c(-c4ccc(C#N)cc4)cncc32)cc1C` (single isomer, unassigned; (+)) [Example 15, (+)-(S or R)-4-(8-(3,4-Dimethylphenyl)-8-hydroxy-5,6,7,8-tetrahydroisoquinolin-4-yl)benzonitrile], for which the EC50 worked out at 21 nM in assay [1] and 5 nM in assay [2].

Consider `CCC(=O)NC1CCc2c(-c3ccc(C#N)cc3)cncc21` (single isomer, unassigned; (+)) [Example 19, (+)-(R or S)—N-(4-(4-Cyanophenyl)-6,7-dihydro-5H-cyclopenta[c]pyridin-7-yl)propionamide], for which the EC50 was 174 nM in assay [1] and 12 nM in assay [2].

On to `CCC(=O)NC1CCCc2c(-c3ccc(C(F)(F)F)cc3)cncc21` (single isomer, unassigned; (+)) [Example 23, (+)-(R or S)—N-(4-(4-(Trifluoromethyl)phenyl)-5,6,7,8-tetrahydroisoquinolin-8-yl)propionamide], for which the EC50 in assay [1] was found to be 3690 nM; in assay [2], 31 nM.

As for `CCC(=O)NC1CCCc2c(-c3ccc(Cl)cc3)cncc21` (single isomer, unassigned; (+)) [Example 26, (+)-(R or S)—N-(4-(4-Chlorophenyl)-5,6,7,8-tetrahydroisoquinolin-8-yl)propionamide], the values for the EC50 in assay [1] and in assay [2] were 503 nM and 17 nM, respectively.

For the compound `CCC(=O)NC1CCCc2c(-c3ccc(F)c(C)c3)cncc21` (single isomer, unassigned; (+)) [Example 29, (+)-(R or S)—N-(4-(4-fluoro-3-methylphenyl)-5,6,7,8-tetrahydroisoquinolin-8-yl)propionamide], the EC50 in assay [1] is 241 nM; in assay [2], 4 nM.

In the case of `CCC(=O)NC1CCCc2c(-c3ccc(Cl)cc3F)cncc21` (single isomer, unassigned; (+)) [Example 32, (+)-(R or S)—N-(4-(4-Chloro-2-fluorophenyl)-5,6,7,8-tetrahydroisoquinolin-8-yl)propionamide], the EC50 turned out to be 617 nM in assay [1] and 19 nM in assay [2].

For the compound `CCC(=O)NC1CCCc2c(-c3ccc(C(F)(F)F)cc3F)cncc21` (single isomer, unassigned; (+)) [Example 35, (+)-(R or S)—N-(4-(2-Fluoro-4-(trifluoromethyl)phenyl)-5,6,7,8-tetrahydroisoquinolin-8-yl)propionamide], the EC50 in assay [1] amounted to 6680 nM; in assay [2], 71 nM.

`CCC(=O)NC1CCCc2c(-c3ccc(Cl)c(F)c3)cncc21` (single isomer, unassigned; (+)) [Example 38, (+)-(R or S)—N-(4-(4-Chloro-3-fluorophenyl)-5,6,7,8-tetrahydroisoquinolin-8-yl)propionamide]: the figures for the EC50 in assay [1] and in assay [2] were 214 nM and 7 nM, respectively.

Take `CCC(=O)NC1CCCc2c(-c3ccc(C(F)(F)F)c(F)c3)cncc21` (single isomer, unassigned; (+)) [Example 41, (+)-(R or S)—N-(4-(3-Fluoro-4-(trifluoromethyl)phenyl)-5,6,7,8-tetrahydroisoquinolin-8-yl)propionamide]: the EC50 in assay [1] was 1810 nM; in assay [2] it was 16 nM.

For the compound `CCC(=O)NC1CCc2c(-c3ccc(C(F)(F)F)cc3)cncc21` (single isomer, unassigned; (+)) [Example 51, (+)-(R or S)—N-(4-(4-(Trifluoromethyl)phenyl)-6,7-dihydro-5H-cyclopenta[c]pyridin-7-yl)propionamide], the EC50 in assay [1] came out at 2260 nM; in assay [2], 25 nM.

`C[C@@H](O)C(=O)NC1CCc2c(-c3ccc(C(F)(F)F)cc3)cncc21` (single isomer, unassigned; (+)) [Example 54, (+)-(R)-2-Hydroxy-N—((R or S)-4-(4-(trifluoromethyl)phenyl)-6,7-dihydro-5H-cyclopenta[c]pyridin-7-yl)propanamide]: the EC50 came out at 3170 nM in assay [1] and 89 nM in assay [2].

For the compound `CCC(=O)NC1CCc2c(-c3ccc(Cl)c(F)c3)cncc21` (single isomer, unassigned; (+)) [Example 57, (+)-(R or S)—N-(4-(4-Chloro-3-fluorophenyl)-6,7-dihydro-5H-cyclopenta[c]pyridin-7-yl)propionamide], the EC50 was 103 nM in assay [1] and 7 nM in assay [2].

Regarding `CCC(=O)NC1CCc2c(-c3ccc(F)c(C)c3)cncc21` (single isomer, unassigned; (+)) [Example 60, (+)-(R or S)—N-(4-(4-Fluoro-3-methylphenyl)-6,7-dihydro-5H-cyclopenta[c]pyridin-7-yl)propionamide], the EC50 is 64 nM in assay [1] and 2 nM in assay [2].

As to `CCC(=O)NC1CCc2c(-c3ccc(C(F)(F)F)cc3F)cncc21` (single isomer, unassigned; (+)) [Example 63, (+)-(R or S)—N-(4-(2-Fluoro-4-(trifluoromethyl)phenyl)-6,7-dihydro-5H-cyclopenta[c]pyridin-7-yl)propionamide], the values for the EC50 in assay [1] and in assay [2] were 1720 nM and 30 nM, respectively.

For the compound `CCS(=O)(=O)NC1CCc2c(-c3ccc(C(F)(F)F)cc3)cncc21` (single isomer, unassigned; (+)) [Example 66, (+)-(R or S)—N-(4-(4-(Trifluoromethyl)phenyl)-6,7-dihydro-5H-cyclopenta[c]pyridin-7-yl)ethanesulfonamide], the EC50 was found to be 14200 nM in assay [1] and 280 nM in assay [2].

For the compound `CCS(=O)(=O)NC1CCc2c(-c3ccc(C(F)(F)F)c(F)c3)cncc21` (single isomer, unassigned; (+)) [Example 73, (+)-(R or S)—N-(4-(3-Fluoro-4-(trifluoromethyl)phenyl)-6,7-dihydro-5H-cyclopenta[c]pyridin-7-yl)ethanesulfonamide], the EC50 in assay [1] was 1870 nM; in assay [2], 44.4 nM.

Take `OC1CCCc2c(-c3ccc(C(F)(F)F)cc3)cncc21` (single isomer, unassigned; (+)) [Example 106, (+)-(R or S)-4-(4-(Trifluoromethyl)phenyl)-5,6,7,8-tetrahydroisoquinolin-8-ol]: the EC50 in assay [1] amounted to 159 nM; in assay [2], 4.6 nM.
